Test results taken from PubChem BioAssay (NCI).
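Values below derive from 48-hour exposures of cells grown in 96-well plates, with endpoints linearly interpolated between the two concentrations bracketing the appropriate inhibition level. TGI denotes the concentration required for complete inhibition of growth.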

What was measured:
Assay in all cases: NCI tumour cell line growth inhibition, 48 h
[1] = tested on: M19-MEL melanoma
[2] = tested on: MDA-N
[3] = tested on: NCI/ADR-RES ovarian
[4] = tested on: PC-3 prostate
[5] = tested on: DMS 114 small cell lung
[6] = tested on: RXF-631 renal

Row | Structure (SMILES) | TGI [1] [µM] | TGI [2] [µM] | TGI [3] [µM] | TGI [4] [µM] | TGI [5] [µM] | TGI [6] [µM]
1 | COc1cccc2c1C(=O)OC2c1cccc2ccccc12 (stereo not drawn) | > 100 | > 100 | > 100 | > 100 | > 100 | –
2 | CC(C)(C)OC(=O)c1cccnc1/C=N/O | > 100 | – | – | – | > 100 | > 100
3 | COC1OC(C)C2OC(C)(C)OC2C1OC(C)=O (stereo not drawn) | > 100 | – | – | – | – | > 100
4 | CC(=O)OC1CC[C@@]2(C)C(CC[C@]3(C)C2CC=C2[C@@H]4C(C)[C@H](C)CCC4(C)CCC23C)[C@@]1(C)C(=O)O (stereo partly drawn) | 51 | 42.3 | 45 | 31.8 | 39.6 | 68.6
5 | COC(=O)/C=c1\s/c(=C\C(=O)OC)c2ccccc12 | > 100 | – | – | – | > 100 | > 100
7 | Cc1ccc(C)c(NC(=O)CC2SC(=Nc3ccccc3Cl)NC2=O)c1 (stereo not drawn) | > 100 | – | – | – | > 100 | > 100
8 | O=C(C/C(CCC(=O)N(Cc1ccccc1)Cc1ccccc1)=N/Nc1ccc([N+](=O)[O-])cc1[N+](=O)[O-])c1ccccc1 | > 100 | – | – | – | > 100 | –
9 | CCOC(=O)/C(=C/c1ccc(N(CCC#N)CCC#N)cc1C)NC(=O)/C=C/c1ccccc1 | > 100 | – | – | – | > 100 | –
10 | CC[N+](C)(CC)CC(C)(C)C(=O)/C=C/c1ccc(/C=C/C(=O)C(C)(C)C[N+](C)(CC)CC)cc1 | > 100 | – | – | – | > 100 | > 100
11 | O=C(CCc1nnc2s/c(=C\c3ccccc3Cl)c(=O)n12)Nc1cc(Cl)ccc1Cl | > 100 | – | – | – | > 100 | –
12 | C[C@]12CCNC(=O)C=C1CC[C@@H]1C2CC[C@@]2(C)C1CC[C@@H]2OC(=O)COc1ccc(N(CCCl)CCCl)cc1 (stereo partly drawn) | 18.6 | 29 | – | – | – | > 88.8
13 | CN(C)CCNC(=O)c1cccc2ccc(-c3ccc(-c4ccccc4)cc3)nc12 | 3.23 | – | – | – | 3.07 | 3.99
14 | COc1ccc2[nH]c3c(C)cc([N+](=O)[O-])c(C)c3c2c1 | 45.1 | – | – | – | 58.3 | –
15 | CC(=O)NNc1nc(C)c(C(=O)NNC(=O)C(=O)Nc2ccc([N+](=O)[O-])cc2C#N)s1 | > 100 | – | – | – | > 100 | –
16 | Cc1cc(=O)[nH]c(CNC(=O)c2cccc(C(=O)NCc3cc(=O)[nH]c(C)n3)c2)n1 | > 100 | – | – | – | > 100 | –
17 | CCOC(=O)C1([Se]c2ccccc2)CCCC1=O (stereo not drawn) | 51.1 | – | – | – | 15.3 | > 100
18 | Cn1c(=O)c2[nH]cnc2n(CC(N)=O)c1=O | > 100 | – | – | – | > 100 | –
19 | COc1cc2c(cc1C1=NC(C)(C)CO1)OCO2 | > 100 | – | – | – | > 100 | > 100
20 | CN(/N=C/c1cccc2cccnc12)c1c([N+](=O)[O-])cc([N+](=O)[O-])cc1[N+](=O)[O-] | > 100 | – | – | – | > 100 | > 100
21 | c1ccc(P(=C2c3ccccc3-c3ccccc32)(c2ccccc2)c2ccccc2)cc1 | 20.3 | – | – | – | 7.78 | 28.9
22 | CCn1c2c(c3ccccc31)C(c1ccccc1)CC1C(=O)N(c3ccccc3)C(=O)C21 (stereo not drawn) | > 100 | – | – | – | > 100 | –
23 | C#CC1(O)CCC2[C@@H]3CCc4cc(Oc5nc(F)nc(-c6c7ccccc7cn6C)n5)ccc4C3CC[C@@]21C (stereo partly drawn) | > 100 | – | – | – | > 53.2 | –
24 | COC1C2c3cc4c(cc3CC(C#N)(c3ccccc32)N1C(=O)c1ccccc1)OCO4 (stereo not drawn) | – | – | – | – | > 100 | > 100
25 | OC12c3ccccc3C3CCC4(OCCO4)C3C1c1ccccc12 (stereo not drawn) | > 100 | – | – | – | > 100 | –
